Patent US8951760B2, “Method for producing an L-amino acid” (priority 2010, dated 2015)

System: L-lysine-producing bacterium, WC196 LC/pCABD2 strain
Assay: L-lysine production culture in small fermentation tank with addition of thiourea or urea to the medium
Type: cell-based, Escherichia coli
Description: The glycerol stock of the L-lysine-producing bacterium, WC196 LC/pCABD2 strain, was inoculated in an amount of one loop to the LB agar medium (1% of tryptone, 0.5% of yeast extract, 0.5% of sodium chloride, 1.5% of agarose) containing 20 mg/L of streptomycin, and cultured at 37° C. for 24 hours as static culture.
The cells grown in the aforementioned preculture were scraped off from the medium, suspended in a 0.85% NaCl aqueous solution, and inoculated into 300 mL of MS glucose liquid fermentation medium or MS fatty acid liquid fermentation medium having the following compositions and contained in a small fermentation tank having a total volume of 1 L at a turbidity of 0.04 measured at a wavelength of 600 nm to start the culture. With the MS glucose liquid fermentation medium, the culture was performed at a culture temperature of 37° C. and a stirring rate of 300 rpm for 16 hours with the addition of 20 mg/L of streptomycin and aeration of compressed air sterilized with a sterilization filter at 1 vvm. Furthermore, pH was maintained at 6.7 with ammonia gas. With the MS fatty acid liquid fermentation medium, the culture was performed at a culture temperature of 37° C. and a stirring rate of 700 rpm for 42 hours with addition of 20 mg/L of streptomycin and aeration of compressed air sterilized with a sterilization filter at 1 vvm. Furthermore, pH was maintained at 6.7 with ammonia gas.
The culture was performed with adding 1 mM or 5 mM thiourea as an antioxidant at the time of the start of the culture. As controls, the culture was performed under a condition in which thiourea was not added (referred to as a thiourea-free condition), and a condition in which urea was added at the same concentrations as thiourea (referred to as a urea addition condition).
During the culture, an appropriate volume of each liquid medium was sampled, and the amount of L-lysine in the culture supernatant was measured with a Biotech Analyzer AS310 (Sakura SI). Complete consumption of the oleate added to the medium was confirmed by using a gas chromatograph GC-2014 (Shimadzu). Complete consumption of the glucose added to the medium was separately confirmed by using a Biotech Analyzer AS310. Furthermore, a Tween 80 solution was added at a final concentration of 1.0% (v/v) immediately after the end of the culture, the resultant was appropriately diluted, and turbidity was measured at a wavelength of 600 nm to measure cell amount at the time of the end of the culture.

[1] = carbon source fatty acid (sodium oleate), additive 1 mM
[2] = carbon source fatty acid (sodium oleate), additive 5 mM
[3] = carbon source glucose, additive 1 mM
[4] = carbon source glucose, additive 5 mM

SMILES	Culture time required for consumption of carbon source [1]	L-Lysine accumulation at the end of culture [1]	OD600 at the end of culture [1]	Culture time required for consumption of carbon source [2]	L-Lysine accumulation at the end of culture [2]	OD600 at the end of culture [2]	Culture time required for consumption of carbon source [3]	L-Lysine accumulation at the end of culture [3]	OD600 at the end of culture [3]	Culture time required for consumption of carbon source [4]	L-Lysine accumulation at the end of culture [4]	OD600 at the end of culture [4]
NC(N)=S [Thiourea, thiourea]	33.0 h	5.2 g/L	7.3	33.0 h	5.2 g/L	7.5	16.0 h	4.7 g/L	5.3	16.0 h	4.7 g/L	5.2
NC(N)=O [Urea, urea]	41.5 h	4.8 g/L	6.8	41.5 h	4.8 g/L	6.9	16.0 h	4.6 g/L	5.2	16.0 h	4.6 g/L	5.2
